The record followed here is patent US9133201B2, “Inhibitors of Bruton's tyrosine kinase” (Pharmacyclics, Inc., priority 2006, dated 2015).

One assay addresses Btk (Homo sapiens (Human), UniProt Q06187). As to the kind of experiment: Btk acellular kinase assay (TR-FRET).
Another assay has as its system DHL-6 cells. Nature of the assay: Growth of DHL-6 cells (Alamar Blue). Type of assay: cell-based. The conditions noted are these: 24 h or 48 h treatment.

Btk, sequence (Q06187 whole entry): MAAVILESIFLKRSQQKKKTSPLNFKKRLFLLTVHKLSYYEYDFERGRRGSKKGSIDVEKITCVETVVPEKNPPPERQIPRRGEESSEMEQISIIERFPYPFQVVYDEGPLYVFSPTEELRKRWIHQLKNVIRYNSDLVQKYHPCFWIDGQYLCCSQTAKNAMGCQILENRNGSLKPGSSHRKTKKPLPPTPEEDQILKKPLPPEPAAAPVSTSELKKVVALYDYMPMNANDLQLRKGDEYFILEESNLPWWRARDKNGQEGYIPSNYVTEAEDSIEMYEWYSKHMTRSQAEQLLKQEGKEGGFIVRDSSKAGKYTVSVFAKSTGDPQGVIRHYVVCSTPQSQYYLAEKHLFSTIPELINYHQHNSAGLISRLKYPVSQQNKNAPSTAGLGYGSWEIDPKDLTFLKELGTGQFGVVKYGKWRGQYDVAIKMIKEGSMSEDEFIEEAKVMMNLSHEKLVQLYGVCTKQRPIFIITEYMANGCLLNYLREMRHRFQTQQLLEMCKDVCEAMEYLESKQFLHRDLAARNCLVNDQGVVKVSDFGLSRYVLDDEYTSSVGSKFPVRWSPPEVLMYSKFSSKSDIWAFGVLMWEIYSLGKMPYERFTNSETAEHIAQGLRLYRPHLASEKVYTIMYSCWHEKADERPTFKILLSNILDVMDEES

For the molecule `CN(C)C/C=C/C(=O)N1CCC[C@@H](n2nc(-c3ccc(Oc4ccccc4)cc3)c3c(N)ncnc32)C1` [Compound 15, (E)-1-(3-(4-amino-3-(4-phenoxyphenyl)-1H-pyrazolo[3,4-d]pyrimidin-1-yl)piperidin-1-yl)-4-(dimethylamino)but-2-en-1-one], the IC50 at Btk (read-out: Btk IC50, acellular TR-FRET kinase assay, [ATP]=Km) was determined as 2.5 nM. Also, in the assay on DHL-6 cells, the “growth of DHL-6 cells” value is reported as “inhibit growth”. On to `C/C=C/C(=O)N1CCCC(n2nc(-c3ccc(Oc4ccccc4)cc3)c3c(N)ncnc32)C1` (stereo not drawn) [Compound 5, (E)-1-(3-(4-amino-3-(4-phenoxyphenyl)-1H-pyrazolo[3,4-d]pyrimidin-1-yl)piperidin-1-yl)but-2-en-1-one], for which, on Btk (Btk potency), the “fold less potent than compound 4” value stood at 28 fold.
